# US11370775B2, “Substituted benzimidazole derivatives as D-amino acid oxidase (DAAO) inhibitors” (NATIONAL TAIWAN UNIVERSITY, priority 2016, dated 2022)
# Key:
# Assay type in all cases: in vivo
# [1] = test system: MK-801-induced hyperlocomotion in C57BL/6 mice; assay: Open field, MK-801-induced hyperlocomotion
# Excerpt: (§1) The NMDA-receptor antagonist MK-801-induced negative or cognitive deficits in C57BL/6 mice were in a well-established drug-induced schizophrenia mouse model and as a useful pharmacological animal model to identify if the RS-D7, its analog and its prodrug improve the symptoms through the NMDA receptor.
# (§2) All wild-type (WT) mice used in this study were backcrossed onto a C57BL/6J background from the Laboratory Animal Center of National Taiwan University Hospital, and all behavioral examinations were conducted in WT mice. For acclimatizing to laboratory conditions, the mice were allowed free access to food and water and were housed in groups with a 12 hours light-dark cycle in a temperature and humidity controlled room of the Psychology Department, National Taiwan University. All animals within the age of 3 months were housed individually one week before experiment testing with food and water available ad libitum. In the beginning of the experiments, the mice were handled and weighted daily at least 1 week before the behavioral experiments. The entire animal procedures were performed according to protocols approved by the Animal Care and Use Committee established by the National Taiwan University.
# (§3) MK-801 was dissolved in saline and administered at a volume of 0.01 ml/g body weight. RS-D7, Drug 12083 (analog of RS-D7) and was freshly dissolved in 1% CMC to the concentration of 2 mg/ml before usage. Prodrug 28095 was freshly dissolved in NMP:HP-beta-CD:H2O (5:25:70) to the concentration of 2 mg/ml before usage. All animals were given vehicle (saline) or MK-801 (0.2 mg/kg, i.p.) 25 minutes before the behavioral experiments. Both vehicle (1% CMC or NMP:HP-beta-CD:H2O) and experimental groups (RS-D7, Drug 12083 or Prodrug 28095) were treated after 5 minutes MK-801 administration with the appropriate dose via P.O. injections (at a volume of 0.01 ml/g body weight).
# (§4) For investigating the treatment effect of RS-D7 for negative and cognitive symptoms, a series of three behavioral tests (run from the first to the third week), which included open field, sucrose preference test and prepulse inhibition were performed in sequence with a 1-week interval between tests.
# To assess spontaneous locomotor activity, each subject was placed into the center of an open-field apparatus (25.40*25.40*40.64 cm^3, Coulbourn Instruments, Whitehall, Pa., USA) under dim lighting condition (60 lx). Motor activity parameters (including total travel distance and travel distance per 10 minutes) were monitored and recorded over a 60 minutes period by using Smart video tracking software (Panlab, Harvard apparatus, US). For comparing the treatment effects of different treatment groups, the percentage change of rescue effect on MK-801-induced hyperlocomotion was calculated using the following formula: %=(rescue effect of drug−MK-801 effect)×100%/MK-801 effect.
# [2] = test system: MK-801-induced PPI deficit in C57BL/6 mice; assay: Prepulse inhibition, MK-801-induced PPI deficit; conditions: MK-801 0.2 mg/kg i.p.
# Excerpt: as §1, §2, §3, §4
# To assess the sensorimotor gating function, each mouse was tested with the SR-LAB startle apparatus (San Diego Instruments, San Diego, Calif., USA). The background noise was 72 dB during testing. Each session was initiated with a 5 minutes acclimatization period followed by 64 trials, consisting of pulse-alone (P-alone) trials, prepulse pulse (pp+P) trials, and no stimulation (nostim) trials. A P-alone trial was a 120 dB white noise burst of 40 msec. In the pp+P trials, the 120 dB pulse was preceded (by 100 msec) by a 20 msec of white noise prepulse burst of 78 dB (PP6), 82 dB (PP10), or 90 dB (PP18). The nostim trials consisted of background noise only. The session began and ended with a block of six presentations of the P-alone trial. Between these two blocks, the rest of the 52 trials were performed pseudorandomly and separated by intertrial intervals of 15 sec on average (varying between 10 and 20 sec). PPI was calculated as a percentage of the startle response using the formula: % PPI=100× [(P-alone score)-(pp+P score)]/(pulse-alone score), where the pulse-alone score was the average of the pulse-alone values from the in-between block of 52 trials.
# [3] = test system: MK-801-induced anhedonia in C57BL/6 mice; assay: Sucrose preference test, MK-801-induced anhedonia
# Excerpt: as §1, §2, §3, §4
# To assess the anhedonia, one of the negative symptoms of schizophrenia, all mice underwent 4-day testing. In the beginning of the sucrose preference, all mice were deprived of water for 23 hours in all the experiment from one day before the first day. On the first day, each mouse was given free access to 2 identical bottles with water for 1 hour. Then, the 2 identical bottles were replaced that one filled with 1% (wt/vol) sucrose solution and the other with water on the second day. On the third and fourth day, each mouse was received MK-801 and RS-D7 treatment before the experiment, and also free accessed to bottles for 1 hour. After the experiment, the 2 bottles were weighted to measure the 1-hour consumption of sucrose solution and water. The sucrose preference percentage (SPP) was calculated using the following formula: % SPP=sucrose solution consumption (g)×100%/[water consumption (g)+sucrose solution consumption (g)].
smiles,measurement,setting,value
"COc1c(C)cnc(C[S+]([O-])c2nc3cc(OC(=O)CC(C)CC(C)(C)C)ccc3[nH]2)c1C (stereo not drawn) [compound 28095, 2-(((4-methoxy-3,5-dimethylpyridin-2-yl)methyl)sulfinyl)-1H-benzo[d]imidazol-5-yl 3,5,5-trimethylhexanoate]",Effect on MK-801 induced hyperlocomotion (open field),"[1]; 100 mg/kg P.O., MK-801 0.2 mg/kg i.p., mice",alleviated MK-801 induced hyperlocomotion
same,Effect on MK-801-induced hyperlocomotion (FIG. 1),"[1]; different dosages, compared to the MK-801 group",can rescue the MK-801-induced hyperlocomotion
same,Effect on MK-801 induced PPI deficit,[2]; 100 mg/kg P.O.,significantly alleviated MK-801 induced PPI deficit
same,Effect on MK-801 induced PPI deficit,[2]; 200 mg/kg P.O.,significantly alleviated MK-801 induced PPI deficit
same,Effect on MK-801 induced anhedonia (sucrose preference),"[3]; 200 mg/kg P.O., MK-801 0.2 mg/kg i.p., mice",normalized MK-801 induced anhedonia
same,Effect on anhedonia after acute MK-801 injection (FIG. 2),[3]; different dosages,rescue the anhedonia after acute MK-801 injection
